Reference: patent US9593113B2, “Imide and acylurea derivatives as modulators of the glucocorticoid receptor” (BRISTOL-MYERS SQUIBB COMPANY, priority 2013, dated 2017)
pKi: −log10 of the molar value. Like-named read-outs stand apart in the source and are kept apart here.

Columns and labels:
[1] = target: human full-length glucocorticoid receptor (Homo sapiens (Human), UniProt P04150); experiment: Glucocorticoid Receptor Binding Assay (II), fluorescence polarization competitor kit; conditions: for Ki: read-out: GR (Ki, nM) (measured in GR binding Assay II)
Chain of human full-length glucocorticoid receptor (P04150 whole entry): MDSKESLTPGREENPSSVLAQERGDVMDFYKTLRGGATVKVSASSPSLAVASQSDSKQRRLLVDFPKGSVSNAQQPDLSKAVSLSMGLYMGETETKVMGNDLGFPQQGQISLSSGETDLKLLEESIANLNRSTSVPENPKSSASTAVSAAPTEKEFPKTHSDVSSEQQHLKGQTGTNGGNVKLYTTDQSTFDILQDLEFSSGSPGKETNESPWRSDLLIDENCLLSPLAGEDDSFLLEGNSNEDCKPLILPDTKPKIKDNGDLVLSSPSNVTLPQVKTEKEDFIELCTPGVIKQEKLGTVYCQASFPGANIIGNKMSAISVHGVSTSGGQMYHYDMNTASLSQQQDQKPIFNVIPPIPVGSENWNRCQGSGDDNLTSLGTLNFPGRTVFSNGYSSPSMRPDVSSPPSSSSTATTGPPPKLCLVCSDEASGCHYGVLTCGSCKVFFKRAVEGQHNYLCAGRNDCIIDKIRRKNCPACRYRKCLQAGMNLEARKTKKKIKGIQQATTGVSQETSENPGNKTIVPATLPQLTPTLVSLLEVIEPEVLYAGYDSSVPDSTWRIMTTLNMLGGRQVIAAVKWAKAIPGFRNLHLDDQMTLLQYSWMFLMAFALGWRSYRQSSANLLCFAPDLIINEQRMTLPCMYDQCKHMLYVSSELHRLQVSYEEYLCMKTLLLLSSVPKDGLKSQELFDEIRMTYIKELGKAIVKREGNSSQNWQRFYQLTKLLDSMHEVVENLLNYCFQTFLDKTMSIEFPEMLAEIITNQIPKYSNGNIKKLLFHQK
Protocol: In order to measure the binding of compounds on the glucocorticoid receptor a commercially available kit was used (Glucocorticoid receptor competitor assay kit, PanVera Co., Madison, Wis., P2816). Briefly, a cell lysate containing recombinantly expressed human full-length glucocorticoid receptor was mixed with a fluorescently labeled glucocorticoid (1 nM Fluormone GS1) in the presence or absence of test compound. After one hour at room temperature, the fluorescence polarization (FP) of the samples were measured.

[2] = system: AP-1 induced transcriptional activity; experiment: Cellular transrepressional assay (AP-1 luciferase reporter, PMA-activated A549 cell); format: cell-based; conditions: for EC50: read-out: AP-1 (EC50, nM) (measured in cellular transrepression assay)
Protocol: To measure the ability of test molecules to inhibit AP-1 induced transcriptional activity we utilized an A549 cell which was stably transfected with a plasmid containing 7×AP-1 DNA binding sites (pAP-1-Luc plasmid, Stratagene Co., La Jolla, Calif.) followed by the gene for luciferase. Cells were activated with 10 ng/ml of phorbol myristic acid (PMA) plus or minus test molecules for 7 hours. After 7 hours a luciferase reagent was added to measure luciferase enzymatic activity in the cell. After a 10 minute incubation of luciferase reagent with cells, luminescence was measured in a TOPCOUNT® luminescence counter. Repression of AP-1 activity was calculated as the percentage decrease in the signal induced by PMA alone. Test molecules were analyzed in the concentration range from 0.1 nM to 40 μM. EC50s were determined by using standard curve fitting methods such as Excel fit (Microsoft Co.). An EC50 is the test molecule concentration at which there is a 50% repression of the maximal inhibition of transcription, i.e., a 50% reduction of AP-1 activity.

[3] = A549 cell, 10 ng/ml PMA, 7 hours
[4] = Homo sapiens, A549 cell, 10 ng/ml PMA, 7 hours

SMILES	Ki [1] [nM]	EC50 [2, 4] [nM]	pKi [1]	EC50 [2, 3] [nM]	AP-1 Max % inhibition (measured in cellular transrepression assay) [2, 3] [%]	AP-1 Max % inhibition (measured in cellular transrepression assay) [2] [%]	EC50 [2] [nM]
CCC(=O)NC(=O)C(C)(C)[C@@H]1c2ccc(Cl)nc2Oc2c(F)cccc21 [Example 1]	42.7	5000			17.32		
CC(=O)Nc1ccc(-c2ccc3c(n2)Oc2ccccc2[C@@H]3C(C)(C)C(=O)NC(N)=O)cn1 [Example 66]	2.66			39.7	36.83		
CC(C)(C(=O)NC(N)=O)[C@H]1c2ccccc2Oc2nc(-c3ccc(C(=O)N4CCCC4)c(F)c3)ccc21 [Example 51]	1.34			13.2	65.20		
CC(=O)NC(=O)C(C)(C)[C@@H]1c2ccc(-c3ccc(C(=O)N4CCCC4)cc3)nc2Oc2c(F)cccc21 [Example 8]	3.59			5.97	64.35		
Cc1nnn(-c2ccc(-c3ccc4c(n3)Oc3ccccc3[C@@H]4C(C)(C)C(=O)NC(N)=O)cc2)n1 [Example 67]	1.51			4.98	53.28		
CC(C)Oc1ccc(-c2ccc3c(n2)Oc2c(F)cccc2[C@@H]3C(C)(C)C(=O)NC(N)=O)cc1 [Example 34]	0.25			1.24	68.62		
CC(C)(C(=O)NC(N)=O)[C@H]1c2ccccc2Oc2nc(-c3ccc(C(=O)N4CCCC4)c(Cl)c3)ccc21 [Example 52]	123			815	57.02		
CC(C)(C(=O)NC(N)=O)[C@@H]1c2ccc(-c3ccc(N4CCCCC4)nc3)nc2Oc2c(F)cccc21 [Example 64]	1.7					44.43	72.5
CNC(=O)NC(=O)C(C)(C)[C@@H]1c2ccc(-c3ccc(S(=O)(=O)C(C)C)cc3)nc2Oc2c(F)cccc21 [Example 25]	5.26			347	25.41		
CNC(=O)NC(=O)C(C)(C)[C@@H]1c2ccc(-c3ccc(S(C)(=O)=O)cc3)nc2Oc2c(F)cccc21 [Example 13]	13.6			483	31.60		
CCS(=O)(=O)c1ccc(-c2ccc3c(n2)Oc2c(F)cccc2[C@@H]3C(C)(C)C(=O)NC(N)=O)cc1 [Example 31]	0.43			5.55	56.84		

Second part, led by results:

Ki [1] [nM]	EC50 [2, 4] [nM]	pKi [1]	EC50 [2, 3] [nM]	SMILES	AP-1 Max % inhibition (measured in cellular transrepression assay) [2, 3] [%]	AP-1 Max % inhibition (measured in cellular transrepression assay) [2] [%]	EC50 [2] [nM]
	8.57	9.20		CC(C)Oc1ccc(-c2ccc3c(n2)Oc2c(F)cccc2[C@@H]3C(C)(C)C(=O)NC(N)=O)cn1 [Example 68]	61.39		
4.23			128	CC(C)Oc1ccc(-c2ccc3c(n2)Oc2ccccc2[C@@H]3C(C)(C)C(=O)NC(N)=O)cn1 [Example 57]	73.98		
1.76			15.3	CC(C)(C(=O)NC(N)=O)[C@H]1c2ccccc2Oc2nc(-c3ccc(C(=O)N4CCC(F)(F)C4)cc3)ccc21 [Example 50]	69.26		
1.72	20.1			CC(C)(C(=O)NC(N)=O)[C@@H]1c2ccc(-c3ccncc3)nc2Oc2c(F)cccc21 [Example 73]	55.78		
4.71	36			CC(C)(C(=O)NC(N)=O)[C@H]1c2ccccc2Oc2nc(-c3ccncc3)ccc21 [Example 72]	37.36		
25.9	93.6			CN1CCN(c2ncc(-c3ccc4c(n3)Oc3c(F)cccc3[C@@H]4C(C)(C)C(=O)NC(N)=O)cn2)CC1 [Example 71]	39.16		
1.09			13.3	CC(C)(C(=O)NC(N)=O)[C@H]1c2ccccc2Oc2nc(-c3ccc(C(=O)N4CCC(F)(F)C4)c(F)c3)ccc21 [Example 49]	67.00		
